Laboratory results reported in patent US8168164B2, “Targeted conjugates and radiation” (Purdue Research Foundation, priority 2006, dated 2012).

Experiments:
Assay type in all cases: in vivo, mice
M109 cells [1] = experiment: Effect of ligand-immunogen conjugates in combination with radiation on tumor volume
Protocol: (§1) Six to eight-week old (˜20-22 grams) female Balb/c mice were immunized subcutaneously at multiple sites with fluorescein (FITC)-labeled keyhole limpet hemocyanin (KLH) and were injected with GPI-0100, a saponin adjuvant. After assuring that anti-FITC antibody titers were high in all mice (as evidenced by the results of ELISA assays of serum samples of the mice), each animal was injected subcutaneously in the shoulder with 1×10^6 M109 cells following the pre-immunization with FITC-KLH. M109 cells are a syngeneic lung cancer cell line that expresses high levels of the folate receptor. Cancer loci were then allowed to attach and grow. When the tumor size reached about 300 mm^2 (about 2 weeks post M109 cell injection), treatments were initiated (day 1).
The mice were divided into four groups (4 mice per group). One group was injected subcutaneously with phosphate-buffered saline (PBS). Two other groups were injected subcutaneously with 500 nmoles/kg of folate-FITC and 20,000 IU/dose of recombinant human IL-2 in a series of 5 daily injections for three weeks (5 days on and 2 days off). The mice were also injected subcutaneously with IFN-α at 25,000 IU/dose (3 times per week for 3 weeks). One of these groups also received a single dose of radiation of 3 Gy on day 1. The fourth group received only a single dose of radiation of 3 Gy on day 1. The radiation was performed with a device approved for human use and calibrated to give the desired radiation dose to mice.
The efficacy of these therapies were then evaluated by monitoring tumor volumes. Tumor volumes were calculated using the equation V=a×b^2/2, where “a” is the length of the tumor and “b” is the width expressed in millimeters. The tumors were measured using calipers.
The procedures were similar to those described in Example 3 except that the radiation was given in three doses of three Gy each on days 1, 5, and 12.

M109 cells [2] = experiment: Effect on non-irradiated tumors (tumor volume, two tumor sites); conditions: folate-FITC
Protocol: as §1, with “each animal was injected subcutaneously in the shoulder with 1×10^6 M109 cells following” left out
[…] One group was injected subcutaneously with phosphate-buffered saline (PBS). Two other groups were injected subcutaneously with 500 nmoles/kg of folate-FITC and 20,000 IU/dose of recombinant human IL-2 in a series of 5 daily injections for three weeks (5 days on and 2 days off). The mice were also injected subcutaneously with IFN-α at 25,000 IU/dose (3 times per week for 3 weeks). […]
The efficacy of these therapies were then evaluated by monitoring tumor volumes. Tumor volumes were calculated using the equation V=a×b^2/2, where “a” is the length of the tumor and “b” is the width expressed in millimeters. The tumors were measured using calipers. […]

M109 tumors = experiment: Effect of ligand-immunogen conjugates in combination with taxol on tumor volume; conditions: folate-FITC and cytokines with 3 doses of taxol (20 mg/kg, every other day) in place of radiation

Nc1nc2ncc(CNc3ccc(C(=O)NC(CCC(=O)NCCNC(=S)Nc4ccc(C(=O)O)c(-c5c6ccc(=O)cc-6oc6cc(O)ccc56)c4)C(=O)O)cc3)nc2c(=O)[nH]1 (stereo not drawn) [folate-FITC]
effect on tumor volume (FIG. 1) (M109 cells [1]; 500 nmoles/kg folate-FITC + IL-2 20,000 IU/dose + IFN-α 25,000 IU/dose s.c., 3 weeks, single dose of radiation of 3 Gy on day 1, FITC-KLH immunized Balb/c mice): act synergistically with low dose radiation to eliminate tumors
effect on tumor volume (FIG. 2) (M109 cells [1]; folate-FITC plus IL-2 and IFN-α, radiation three doses of three Gy on days 1, 5, and 12): synergistic with low dose radiation to eliminate tumors
mice tumor-free at the end of the assay (M109 cells [1]; folate-FITC plus IL-2 and IFN-α, radiation three doses of three Gy on days 1, 5, and 12, 4 mice per group): Two out of the four mice
mice completely tumor-free after treatment (M109 cells [2]; cytokines and radiation (3 Gy days 1 and 5 on tail tumor only), 6 mice per group): Two out of six mice
response of tumors on the same animal that were not irradiated (FIG. 4) (M109 cells [2]; cytokines and radiation, tail tumor irradiated days 1 and 5 with 3 Gy per dose, neck tumor not irradiated): improved response
effect on tumor mass in combination with taxol (FIG. 5) (M109 tumors): not synergistic with taxol
